Results as given in ChEMBL document CHEMBL1150267, “Synthesis and screening of mono- and di-aryl technetium and rhenium metallocarboranes. A new class of probes for the estrogen receptor” (J Med Chem, 2008).

Experiment: physchem
Conditions: octanol/water
Description: Lipophilicity, log P of the compound

`c1ccc(Oc2ccccc2)cc1` showed a logP of 4.2.
